Experimental data reported in article PMC2674222 (Biochemistry, 2009).
Where two headings read alike, the source gives them in different places.

Columns and labels:
[1] = molecular target: Native PNP; settings: read-out: Ki* (slow-onset tight binding constant); 50 mM KH2PO4, pH 7.4, 25 °C; cited from earlier work
[2] = molecular target: Leuko-PNP; settings: read-out: Ki* (slow-onset tight binding constant); 50 mM KH2PO4, pH 7.4, 25 °C; cited from earlier work
[3] = molecular target: T1, F159W-Leuko-PNP (Homo sapiens, UniProt P00491, F159W/W16Y/W178Y/W94Y); settings: relative to native and Leuko-PNP (Table 2)
T1 sequence (P00491 1-289 W16Y/W94Y/F159W/W178Y): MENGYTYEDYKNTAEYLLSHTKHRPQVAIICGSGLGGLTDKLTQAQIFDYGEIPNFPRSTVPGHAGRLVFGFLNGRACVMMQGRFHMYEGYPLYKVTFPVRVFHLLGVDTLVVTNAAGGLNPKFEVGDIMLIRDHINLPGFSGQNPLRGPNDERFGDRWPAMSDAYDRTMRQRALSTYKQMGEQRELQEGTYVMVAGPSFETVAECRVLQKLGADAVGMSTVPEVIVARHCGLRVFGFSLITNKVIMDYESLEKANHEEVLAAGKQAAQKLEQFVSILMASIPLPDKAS

[4] = system: Native PNP; settings: inosine as substrate; 50 mM KH2PO4, pH 7.4, 25 °C; cited from earlier work
[5] = molecular target: T1, F159W-Leuko-PNP; assay: Steady state kinetics, xanthine oxidase coupled assay with inosine as substrate; assay type: biochemical
[6] = system: Leuko-PNP; settings: inosine as substrate; 50 mM KH2PO4, pH 7.4, 25 °C; cited from earlier work
[7] = molecular target: T1, F159W-Leuko-PNP; assay: Fluorometric titration of hypoxanthine-free enzyme with ligands; assay type: binding; settings: for Kd: pH 7.4, 25 °C
[8] = system: Leuko-PNP-PO4; settings: stopped-flow fluorometry; cited from earlier work
[9] = system: Leuko-PNP-PO4; settings: T-jump relaxation kinetics; cited from earlier work
[10] = molecular target: T2, F159W-Leuko-PNP-PO4 (Homo sapiens, UniProt P00491, F159W/W16Y/W178Y/W94Y); assay: biochemical
[11] = molecular target: T2, F159W-Leuko-PNP-PO4; settings: F159W-Leuko-PNP-Hx-PO4 system, 25 °C
[12] = substrate: OC[C@H]1O[C@@H](n2cnc3c(O)ncnc32)[C@H](O)[C@@H]1O; assay: Steady state kinetics, xanthine oxidase coupled assay with inosine as substrate; assay type: biochemical, human; settings: other: inosine as substrate, 50 mM KH2PO4, pH 7.4, 25 °C

4'-deaza-1'-aza-2'-deoxy-1'-(9-methylene)-Immucillin-H [DADMe-ImmH]
Ki [1]: 0.0085 ± 0.0003 nM | Ki [2]: 0.012 ± 0.003 nM | reduction of binding affinity to F159W-Leuko-PNP [3]: ~10 fold

O=c1[nH]cnc2c1ncn2[C@@H]1O[C@H](CO)[C@@H](O)[C@H]1O [Inosine, inosine]
Km [4]: 71 ± 8 µM | kcat [4]: 44 ± 2 s⁻¹ | Km altered, F159W-Leuko-PNP vs native and Trp-free enzymes [5]: ~7 fold | kcat altered, F159W-Leuko-PNP vs native and Trp-free enzymes [5]: ~2 fold | overall catalytic efficiency reduced relative to native- and Leuko-PNPs [5]: ~14 fold | Km [6]: 50 ± 3 µM | kcat [6]: 36 ± 1 s⁻¹ | effect on fluorescence emission spectrum of the enzyme ([7]; up to ∼100 μM, absence or presence of inorganic sulfate (up to 3 mM)): does not alter the fluorescence emission spectrum

Nc1nc2nc[nH]c2c(=O)[nH]1 [guanine]
koff [8]: 86 ± 8 s⁻¹ | kon [8]: 2.7 ± 0.1 × 10^7 M^−1s^−1 | koff [9]: 142 ± 36 s⁻¹ | kon [9]: 3.6 ± 0.2 × 10^7 M^−1s^−1

O=c1[nH]cnc2nc[nH]c12 [hypoxanthine]
koff ([10]; read-out: calculated dissociation rate (koff)): 178 ± 8 s⁻¹ | kon ([10]; read-out: rate of association (kon)): 1.2e+07 M⁻¹ s⁻¹ | k1 [11]: (1.2 ± 0.1) × 10^7 M^−1s^−1 | k−1 [11]: 178 ± 8 s⁻¹ | Kd ([7]; absence of phosphate, 20 mM Tris-Cl): 3.3 ± 0.2 µM | Kd ([7]; presence of phosphate (50 mM KH2PO4)): 16 ± 2 µM | decrease in fluorescence intensity upon titration ([7]; absence or presence of phosphate (50 mM KH2PO4), λex 295 nm): 3 fold

Immucillin-H [ImmH]
Ki [1]: 0.088 ± 0.003 nM | Ki [2]: 0.134 ± 0.012 nM | reduction of binding affinity to F159W-Leuko-PNP [3]: ~20 fold

B1: F159W-Leuko-PNP (Homo sapiens; F159W/W16Y/W178Y/W94Y) (protein)
chain: MENGYTYEDYKNTAEYLLSHTKHRPQVAIICGSGLGGLTDKLTQAQIFDYGEIPNFPRSTVPGHAGRLVFGFLNGRACVMMQGRFHMYEGYPLYKVTFPVRVFHLLGVDTLVVTNAAGGLNPKFEVGDIMLIRDHINLPGFSGQNPLRGPNDERFGDRWPAMSDAYDRTMRQRALSTYKQMGEQRELQEGTYVMVAGPSFETVAECRVLQKLGADAVGMSTVPEVIVARHCGLRVFGFSLITNKVIMDYESLEKANHEEVLAAGKQAAQKLEQFVSILMASIPLPDKAS
Km [12]: 422 ± 30 µM | kcat [12]: 22 ± 1 s⁻¹ | kcat/Km [12]: 52000 ± 4000 M⁻¹ s⁻¹
